The values below come from patent US20140058103A1, “Inhibitors of PI3K-Delta and Methods of Their Use and Manufacture” (Exelixis, Inc., priority 2010, published 2014).

Molecules are shown by their SMILES. Where only a bound is given, the exact number is not on record here.

The target of the experiment is PI3K delta (Homo sapiens, UniProt O00329). The experiment is described as follows: Luciferase-coupled chemiluminescence kinase assay (ATP consumption, KinaseGlo). It is filed as biochemical. In outline: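 Compound, kinase and ATP (≤ KM) reacted 2 h at ambient temperature, then remaining ATP quantified with luciferase-luciferin (KinaseGlo) luminescence as percent consumed.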
PI3K delta, sequence (O00329 whole entry): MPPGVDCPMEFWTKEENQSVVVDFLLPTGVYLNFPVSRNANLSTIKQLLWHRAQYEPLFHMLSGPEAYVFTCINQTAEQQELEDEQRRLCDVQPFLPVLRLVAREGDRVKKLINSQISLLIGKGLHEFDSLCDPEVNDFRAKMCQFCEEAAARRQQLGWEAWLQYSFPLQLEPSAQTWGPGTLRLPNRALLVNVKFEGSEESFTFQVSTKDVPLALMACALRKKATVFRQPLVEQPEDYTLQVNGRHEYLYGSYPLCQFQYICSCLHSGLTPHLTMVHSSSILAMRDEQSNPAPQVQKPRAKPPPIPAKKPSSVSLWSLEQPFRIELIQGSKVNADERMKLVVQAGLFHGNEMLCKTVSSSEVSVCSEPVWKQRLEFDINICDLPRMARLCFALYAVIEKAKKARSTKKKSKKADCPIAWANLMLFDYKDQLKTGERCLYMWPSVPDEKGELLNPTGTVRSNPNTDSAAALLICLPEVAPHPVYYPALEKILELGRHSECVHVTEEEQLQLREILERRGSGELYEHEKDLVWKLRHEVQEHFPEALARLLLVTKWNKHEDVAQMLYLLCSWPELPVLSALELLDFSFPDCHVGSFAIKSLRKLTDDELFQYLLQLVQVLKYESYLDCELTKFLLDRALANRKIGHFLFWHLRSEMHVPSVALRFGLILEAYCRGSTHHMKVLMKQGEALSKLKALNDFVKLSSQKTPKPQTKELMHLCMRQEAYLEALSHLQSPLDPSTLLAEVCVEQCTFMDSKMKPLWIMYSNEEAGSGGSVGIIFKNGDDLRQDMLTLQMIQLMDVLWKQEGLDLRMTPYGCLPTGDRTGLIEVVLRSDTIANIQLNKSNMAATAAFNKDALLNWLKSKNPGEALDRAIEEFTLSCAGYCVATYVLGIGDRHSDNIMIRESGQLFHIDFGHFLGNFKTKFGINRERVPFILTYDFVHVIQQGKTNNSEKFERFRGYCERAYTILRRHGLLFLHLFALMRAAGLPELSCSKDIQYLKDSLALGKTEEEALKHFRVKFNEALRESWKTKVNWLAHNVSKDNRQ
PI3K delta, sequence (P27986 whole entry partner): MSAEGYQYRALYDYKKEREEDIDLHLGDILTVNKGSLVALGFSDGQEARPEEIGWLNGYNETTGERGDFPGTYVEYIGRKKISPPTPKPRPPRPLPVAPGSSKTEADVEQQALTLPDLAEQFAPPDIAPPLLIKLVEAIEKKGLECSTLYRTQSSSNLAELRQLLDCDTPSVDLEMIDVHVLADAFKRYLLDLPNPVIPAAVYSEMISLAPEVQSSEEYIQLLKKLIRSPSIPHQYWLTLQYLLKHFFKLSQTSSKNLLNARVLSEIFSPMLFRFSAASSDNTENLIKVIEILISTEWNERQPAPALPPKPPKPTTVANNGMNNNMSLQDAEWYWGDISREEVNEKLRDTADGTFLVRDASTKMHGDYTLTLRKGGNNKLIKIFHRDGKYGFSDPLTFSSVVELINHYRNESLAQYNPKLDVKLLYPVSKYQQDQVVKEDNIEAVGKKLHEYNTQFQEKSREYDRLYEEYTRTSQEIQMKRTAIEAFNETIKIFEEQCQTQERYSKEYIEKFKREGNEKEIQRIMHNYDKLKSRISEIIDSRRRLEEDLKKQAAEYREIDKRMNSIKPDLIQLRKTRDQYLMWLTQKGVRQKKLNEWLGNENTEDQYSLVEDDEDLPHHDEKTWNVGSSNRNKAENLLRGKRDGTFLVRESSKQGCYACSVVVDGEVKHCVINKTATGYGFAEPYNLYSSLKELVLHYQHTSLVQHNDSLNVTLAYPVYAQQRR
(Kinase-Glo measures the ATP left after a reaction by luminescence.)
Consider `Cn1c(C(=O)NCC2CC2)nc2c(N3CCC4(CC3)C(=O)Nc3c(Cl)cccc34)ncnc21` [Compound 211, 6-(7-chloro-2-oxo-1,2-dihydro-1′H-spiro[indole-3,4′-piperidin]-1′-yl)-N-(cyclopropylmethyl)-9-methyl-9H-purine-8-carboxamide], for which the IC50 (as a rule, the concentration at which inhibition is half-maximal) was less than 50 nM.

`CCn1c(C(=O)NCC2CCC2)nc2c(N3CCC4(CC3)C(=O)Nc3ccccc34)ncnc21` [Compound 212, N-(cyclobutylmethyl)-9-ethyl-6-(2-oxo-1,2-dihydro-1′H-spiro[indole-3,4′-piperidin]-1′-yl)-9H-purine-8-carboxamide] returned an IC50 of less than 50 nM.

`CCn1c(C(=O)N2CC[C@@H](F)C2)nc2c(N3CCC4(CC3)C(=O)Nc3ccccc34)ncnc21` [Compound 213] had an IC50 of less than 50 nM.

`CCn1c(C(=O)NC(C)C2CC2)nc2c(N3CCC4(CC3)C(=O)Nc3ccccc34)ncnc21` (stereo not shown) [Compound 214, N-(1-cyclopropylethyl)-9-ethyl-6-(2-oxo-1,2-dihydro-1′H-spiro[indole-3,4′-piperidin]-1′-yl)-9H-purine-8-carboxamide] displayed an IC50 of less than 50 nM.

On to `CCn1c(C(=O)NCC2(O)CC2)nc2c(N3CCC4(CC3)C(=O)Nc3ccccc34)ncnc21` [Compound 215, 9-ethyl-N-[(1-hydroxycyclopropyl)methyl]-6-(2-oxo-1,2-dihydro-1′H-spiro[indole-3,4′-piperidin]-1′-yl)-9H-purine-8-carboxamide], for which the concentration for half-maximal inhibition (IC50) is less than 50 nM.

Turning to `CCn1c(C(=O)N2CC(F)(F)C2)nc2c(N3CCC4(CC3)C(=O)Nc3ccccc34)ncnc21` [Compound 216, 1′-{8-[(3,3-difluoroazetidin-1-yl)carbonyl]-9-ethyl-9H-purin-6-yl}spiro[indole-3,4′-piperidin]-2(1H)-one], the half-inhibitory concentration (IC50) was less than 50 nM.

In the case of `CCn1c(C(=O)NCC(C)(C)C)nc2c(N3CCC4(CC3)C(=O)Nc3ccccc34)ncnc21` [Compound 217, N-(2,2-dimethylpropyl)-9-ethyl-6-(2-oxo-1,2-dihydro-1′H-spiro[indole-3,4′-piperidin]-1′-yl)-9H-purine-8-carboxamide], the IC50 was less than 50 nM.

Consider `CCn1c(C(=O)N2CCC(F)(F)C2)nc2c(N3CCC4(CC3)C(=O)Nc3ccccc34)ncnc21` [Compound 218, 1′-{8-[(3,3-difluoropyrrolidin-1-yl)carbonyl]-9-ethyl-9H-purin-6-yl}spiro[indole-3,4′-piperidin]-2(1H)-one], for which the IC50 is less than 50 nM.

Turning to `CCNC(=O)c1nc2c(N3CCC4(CC3)C(=O)Nc3ccccc34)ncnc2n1CC` [Compound 219, N,9-diethyl-6-(2-oxo-1,2-dihydro-1′H-spiro[indole-3,4′-piperidin]-1′-yl)-9H-purine-8-carboxamide], the IC50 was less than 50 nM.

Turning to `CCCNC(=O)c1nc2c(N3CCC4(CC3)C(=O)Nc3ccccc34)ncnc2n1CC` [Compound 220, 9-ethyl-6-(2-oxo-1,2-dihydro-1′H-spiro[indole-3,4′-piperidin]-1′-yl)-N-propyl-9H-purine-8-carboxamide], the IC50 is less than 50 nM.

`CCn1c(C(=O)NC2CCC2)nc2c(N3CCC4(CC3)C(=O)Nc3ccccc34)ncnc21` [Compound 221, N-cyclobutyl-9-ethyl-6-(2-oxo-1,2-dihydro-1′H-spiro[indole-3,4′-piperidin]-1′-yl)-9H-purine-8-carboxamide]: the IC50 was less than 50 nM.

On to `CCn1c(C(=O)NCCCCO)nc2c(N3CCC4(CC3)C(=O)Nc3ccccc34)ncnc21` [Compound 222, 9-ethyl-N-(4-hydroxybutyl)-6-(2-oxo-1,2-dihydro-1′H-spiro[indole-3,4′-piperidin]-1′-yl)-9H-purine-8-carboxamide], for which the concentration for half-maximal inhibition (IC50) fell in the range of 50 to 250 nM.

`CCn1c(C(=O)NC(C)C)nc2c(N3CCC4(CC3)C(=O)Nc3ccccc34)ncnc21` [Compound 223, 9-ethyl-N-(1-methylethyl)-6-(2-oxo-1,2-dihydro-1′H-spiro[indole-3,4′-piperidin]-1′-yl)-9H-purine-8-carboxamide] returned an IC50 of less than 50 nM.
